Activity calls are given as the source filed them. The calls are words filed in the database; no cut-off is given here.
Tests used:
[1] = test system: BV-2; test: Antiinflammatory activity against LPS-stimulated C57BL/6 mouse microglial BV-2 cells assessed as reduction in cellular content of TNF-alpha level at 30 umol/L pretreated for 3 hrs followed by LPS stimulation and measured after 24 hrs by AlphaLISA assay; type: functional, cell-based; settings: dose 30.0 µmol/L, time 27.0 hrs
[2] = test system: BV-2; test: Antiinflammatory activity against LPS-stimulated C57BL/6 mouse microglial BV-2 cells assessed as reduction in cellular content of TNF-alpha level at 30 umol/L pretreated for 3 hrs followed by LPS stimulation and measured after 6 hrs by AlphaLISA assay; type: functional, cell-based; settings: dose 30.0 µmol/L, time 9.0 hrs
[3] = test system: BV-2; test: Antiinflammatory activity in C57BL/6 mouse microglial BV-2 cells assessed as reduction in LPS induced IL-6 mRNA expression level at 30 umol/L pretreated for 3 hrs followed by LPS stimulation and measured after 24 hrs by qRT-PCR analysis; type: functional, cell-based; settings: dose 30.0 µmol/L, time 27.0 hrs
[4] = test system: BV-2; test: Antiinflammatory activity in C57BL/6 mouse microglial BV-2 cells assessed as reduction in LPS-induced IL-6 release at 30 umol/L pretreated for 3 hrs followed by LPS stimulation and measured after 6 hrs by AlphaLISA assay; type: functional; settings: C57BL/6, BV-2, 9 h, dose 30 µmol/L
[5] = test system: BV-2; test: Antiinflammatory activity in C57BL/6 mouse microglial BV-2 cells assessed as reduction in LPS induced IL-1 beta mRNA expression level at 30 umol/L pretreated for 3 hrs followed by LPS stimulation and measured after 24 hrs by qRT-PCR analysis; type: functional, cell-based; settings: dose 30.0 µmol/L, time 27.0 hrs
[6] = test system: BV-2; test: Antiinflammatory activity in C57BL/6 mouse microglial BV-2 cells assessed as reduction in LPS-induced IL-6 release at 30 umol/L pretreated for 3 hrs followed by LPS stimulation and measured after 24 hrs by AlphaLISA assay; type: functional; settings: C57BL/6, BV-2, 27 h, dose 30 µmol/L
[7] = test system: BV-2; test: Antiinflammatory activity in C57BL/6 mouse microglial BV-2 cells assessed as reduction in LPS-induced TNF-alpha release at 30 umol/L pretreated for 3 hrs followed by LPS stimulation and measured after 24 hrs by AlphaLISA assay; type: functional; settings: C57BL/6, BV-2, 27 h, dose 30 µmol/L
[8] = test system: BV-2; test: Antiinflammatory activity against LPS-stimulated C57BL/6 mouse microglial BV-2 cells assessed as reduction in cellular content of IL-6 level at 30 umol/L pretreated for 3 hrs followed by LPS stimulation and measured after 6 hrs by AlphaLISA assay; type: functional, cell-based; settings: dose 30.0 µmol/L, time 9.0 hrs
[9] = test system: BV-2; test: Antiinflammatory activity in C57BL/6 mouse microglial BV-2 cells assessed as reduction in LPS-induced TNF-alpha release at 30 umol/L pretreated for 3 hrs followed by LPS stimulation and measured after 6 hrs by AlphaLISA assay; type: functional; settings: C57BL/6, BV-2, 9 h, dose 30 µmol/L
[10] = test system: BV-2; test: Antiinflammatory activity against LPS-stimulated C57BL/6 mouse microglial BV-2 cells assessed as reduction in cellular content of IL-1 beta level at 30 umol/L pretreated for 3 hrs followed by LPS stimulation and measured after 24 hrs by AlphaLISA assay; type: functional, cell-based; settings: dose 30.0 µmol/L, time 27.0 hrs
[11] = test system: BV-2; test: Antiinflammatory activity against LPS-stimulated C57BL/6 mouse microglial BV-2 cells assessed as reduction in cellular content of IL-6 level at 30 umol/L pretreated for 3 hrs followed by LPS stimulation and measured after 24 hrs by AlphaLISA assay; type: functional, cell-based; settings: dose 30.0 µmol/L, time 27.0 hrs

With CCC(O)/C=C/C=C\C=C\[C@H](O)CCCCCCCC(=O)O (mixture of isomers) the Activity [1] was “Active”, the Activity [2] was “Active” and the Activity [3] was “Active”. For the same compound, the inhibition at 30 µM [4] was 20.8%, the Activity [5] was “Active” and the inhibition at 30 µM [6] was 30.5%. For the same compound, the inhibition at 30 µM [7] was 22.7%, the Activity [8] was “Active” and the inhibition at 30 µM [9] was 14.1%. For the same compound, the Activity [10] was “Active” and the Activity [11] was “Active”.

Reference: ChEMBL document CHEMBL5131489, “Linotrins: Omega-3 oxylipins featuring an E,Z,E conjugated triene motif are present in the plant kingdom and alleviate inflammation in LPS-challenged microglial cells” (2022)
